From publication PMC9286316, “Importance of the Cyclic Cystine Knot Structural Motif for Immunosuppressive Effects of Cyclotides” (ACS Chemical Biology, 2021)

System: human PBMCs
Experiment: Lymphocyte proliferation assay (CFSE, anti-CD3/anti-CD28 stimulated PBMC, flow cytometry)
Format: cell-based
Conditions: 72 h; for antiproliferative activity (Figure 2B): tested concentration range 1–100 μg/mL peptide, three biological replicates
Method: Blood of healthy donors was obtained from the Blood Transfusion Centre (University Medical Centre Freiburg, Freiburg Germany), and all experiments conducted on human material were approved by the ethics committee of the University Freiburg (55/14). Venous blood was centrifuged to isolate peripheral blood mononuclear cells on a LymphoPrep gradient (density: 1.077 g/cm^3, 20 min, 500 × g, 20 °C; Progen, Heidelberg, Germany). PBMCs were collected and washed twice with phosphate buffer saline (PBS; GE Healthcare, München), and cell viability and concentration were determined using the trypan blue exclusion test. Cells were cultured in RPMI 1640 medium supplemented with 10% heat-inactivated fetal calf serum, 2 mM L-glutamine, 100 U/mL penicillin, and […] streptomycin (all from Life Technologies, Paisley, UK) and cultured at 37 °C in a humidified incubator with a 5% CO2/95% air atmosphere.
Harvested PBMC were washed twice in cold PBS and resuspended in PBS at a concentration of 5 × 10^6 cells per mL. Carboxyfluorescein diacetate succinimidyl ester (CFSE; 5 μM; Sigma-Aldrich, St. Louis, MO) staining was performed to determine T-cell proliferation. Cells were stained with CFSE and incubated for 10 min at 37 °C. The staining reaction was stopped by washing twice with complete growth medium. Afterward, stained cells were stimulated with anti-human CD3 (clone OKT3) and anti-human CD28 (clone 28.6) mAbs (each 100 ng/mL; both from eBioscience, Frankfurt, Germany) treated as indicated in the figure legends, with medium alone, cyclosporine A (CsA; 5 μg/mL, purity ≥99%, Sandimmun 50 mg/mL, Novartis Pharma, Basel, Switzerland), camptothecin (CPT; 300 μM; purity >98%; Tocris, Bristol, UK), or in the presence of the indicated concentrations of peptides for 72 h at 37 °C in a humidified incubator with a 5% CO2/95% air atmosphere. Cell division progress was analyzed by flow cytometric analysis using a FACS Calibur analyzer (BD Bioscience, Becton Dickinson, Franklin Lakes, NJ). Data were generated using FlowJo software. For further analysis of FACS raw data Microsoft Excel and SPSS software (IBM, Version 22.0, Armonk, USA) were applied. All bioactivity data are represented as mean ± standard deviation (SD) for the indicated number of independent experiments. Statistical significance was determined by a one-way ANOVA followed by Dunnett’s post hoc pairwise comparisons. The asterisks (*p < 0.05, **p < 0.01, ***p < 0.001) represent significant differences from the respective control.

CC(C)C[C@@H]1NC(=O)CNC(=O)[C@H](CC(N)=O)NC(=O)[C@H](CCCNC(=N)N)NC(=O)[C@H]([C@@H](C)O)NC(=O)[C@H](CSCC(N)=O)NC(=O)[C@H](C(C)C)NC(=O)[C@@H]2CCCN2C(=O)[C@H](Cc2c[nH]c3ccccc23)NC(=O)[C@H](CO)NC(=O)[C@H](CSCC(N)=O)NC(=O)[C@H](CCCCN)NC(=O)[C@H](CSCC(N)=O)NC(=O)CNC(=O)[C@@H]2CCCN2C(=O)[C@H]([C@@H](C)O)NC(=O)[C@H](CC(N)=O)NC(=O)[C@H](CSCC(N)=O)NC(=O)[C@H]([C@@H](C)O)NC(=O)CNC(=O)CNC(=O)[C@H](C(C)C)NC(=O)[C@H](CSCC(N)=O)NC(=O)[C@H]([C@@H](C)O)NC(=O)[C@H](CCC(=O)O)NC(=O)CNC(=O)[C@H](CSCC(N)=O)NC(=O)[C@H](C(C)C)NC(=O)[C@@H]2CCCN2C1=O [T20K-Acm]
antiproliferative activity (Figure 2B): total loss of antiproliferative activity

CCN1C(=O)CC(SC[C@@H]2NC(=O)CNC(=O)[C@@H]3CCCN3C(=O)[C@H]([C@@H](C)O)NC(=O)[C@H](CC(N)=O)NC(=O)[C@H](CSC3CC(=O)N(CC)C3=O)NC(=O)[C@H]([C@@H](C)O)NC(=O)CNC(=O)CNC(=O)[C@H](C(C)C)NC(=O)[C@H](CSC3CC(=O)N(CC)C3=O)NC(=O)[C@H]([C@@H](C)O)NC(=O)[C@H](CCC(=O)O)NC(=O)CNC(=O)[C@H](CSC3CC(=O)N(CC)C3=O)NC(=O)[C@H](C(C)C)NC(=O)[C@@H]3CCCN3C(=O)[C@H](CC(C)C)NC(=O)CNC(=O)[C@H](CC(N)=O)NC(=O)[C@H](CCCNC(=N)N)NC(=O)[C@H]([C@@H](C)O)NC(=O)[C@H](CSC3CC(=O)N(CC)C3=O)NC(=O)[C@H](C(C)C)NC(=O)[C@@H]3CCCN3C(=O)[C@H](Cc3c[nH]c4ccccc34)NC(=O)[C@H](CO)NC(=O)[C@H](CSC3CC(=O)N(CC)C3=O)NC(=O)[C@H](CCCCN)NC2=O)C1=O (stereo partly shown) [T20K-Nem]
antiproliferative activity (Figure 2B): total loss of antiproliferative activity

CSSC[C@@H]1NC(=O)CNC(=O)[C@@H]2CCCN2C(=O)[C@H]([C@@H](C)O)NC(=O)[C@H](CC(N)=O)NC(=O)[C@H](CSSC)NC(=O)[C@H]([C@@H](C)O)NC(=O)CNC(=O)CNC(=O)[C@H](C(C)C)NC(=O)[C@H](CSSC)NC(=O)[C@H]([C@@H](C)O)NC(=O)[C@H](CCC(=O)O)NC(=O)CNC(=O)[C@H](CSSC)NC(=O)[C@H](C(C)C)NC(=O)[C@@H]2CCCN2C(=O)[C@H](CC(C)C)NC(=O)CNC(=O)[C@H](CC(N)=O)NC(=O)[C@H](CCCNC(=N)N)NC(=O)[C@H]([C@@H](C)O)NC(=O)[C@H](CSSC)NC(=O)[C@H](C(C)C)NC(=O)[C@@H]2CCCN2C(=O)[C@H](Cc2c[nH]c3ccccc23)NC(=O)[C@H](CO)NC(=O)[C@H](CSSC)NC(=O)[C@H](CCCCN)NC1=O [T20K-S-methyl]
antiproliferative activity (Figure 2B): total loss of antiproliferative activity

GLPVCGETCVGGTCNTPGCKCSWPVCTR↓N (head to tail) [cyclic reduced T20K]
antiproliferative activity (Figure 1D) (tested concentration range up to 10 μM (∼29 μg/mL), mean ± SD of three biological replicates relative to stimulated control): lost activity
